In general, IC50 refers to the concentration at which inhibition is half-maximal. Low readings indicate greater potency in that assay, high ones weaker potency in that assay.

The target of assay [1] is T1, human MetAP2 enzyme (Homo sapiens, UniProt P50579). Description: MetAP2 enzyme assay, MetAP2 enzyme complexed with cobalt ions. The settings on record: MetAP2 Co pIC50, 10 μM CoCl2; -log(IC50), IC50 molar.
In assay [2] the target is T1, human MetAP2 enzyme. Description: MetAP2 enzyme assay, MetAP2 enzyme complexed with manganese ions. The settings on record: MetAP2 Mn pIC50, 10 μM MnCl2; -log(IC50), IC50 molar.
Protocol: DNA encoding the full-length sequence of human MetAP2 enzyme is amplified by PCR and cloned into a pFastBac expression vector (Invitrogen). Recombinant baculovirus incorporating the MetAP2 construct is generated by transposition using the Bac-to-Bac system (Invitrogen). The expression of recombinant protein is carried out by infection of Spodoptera frugiperda Sf9 cells (Invitrogen) in 5L Wave Bioreactors (Wave Biotech). Recombinant protein is isolated from cellular extracts by binding to an SP Hitrap Fast Flow or SP Sepharose (Sigma) column, and the protein is eluted using a NaCl gradient. Partially purified extracts of MetAP2 are further purified by an AKTA FPLC over a Superdex-200 column (GE). The purity of MetAP2 protein is determined on denaturing SDS-PAGE gel.
The results for each well are expressed as percent inhibition and calculated using the equation:

Each structure is given as a SMILES string.

T1 sequence (P50579 whole entry): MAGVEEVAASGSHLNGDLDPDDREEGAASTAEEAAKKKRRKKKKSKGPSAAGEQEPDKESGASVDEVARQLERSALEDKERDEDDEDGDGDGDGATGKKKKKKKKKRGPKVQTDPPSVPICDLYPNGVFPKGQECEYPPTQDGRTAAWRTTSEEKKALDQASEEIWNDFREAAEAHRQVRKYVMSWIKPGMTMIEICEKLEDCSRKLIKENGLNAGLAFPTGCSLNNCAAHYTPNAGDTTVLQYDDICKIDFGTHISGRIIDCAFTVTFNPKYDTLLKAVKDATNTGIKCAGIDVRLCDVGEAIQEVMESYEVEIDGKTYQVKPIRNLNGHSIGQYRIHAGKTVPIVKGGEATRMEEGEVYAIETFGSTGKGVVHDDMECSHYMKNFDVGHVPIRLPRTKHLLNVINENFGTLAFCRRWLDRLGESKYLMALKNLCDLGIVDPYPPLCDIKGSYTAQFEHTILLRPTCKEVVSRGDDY

On to `Cc1nc(C(=O)NC2(CO)CC2)ccc1-n1c2ccc(F)cc2c2[nH]ncc21` [Example 100, 5-(7-Fluoropyrazolo[4,3-b]indol-4(1H)-yl)-N-(1-(hydroxymethyl)cyclopropyl)-6-methylpicolinamide], for which the IC50 on human MetAP2 enzyme [1] and against human MetAP2 enzyme [2] was 12.6 nM throughout.
`Cc1nc(C(=O)NC2CC2)ccc1-n1c2ccc(F)cc2c2[nH]ncc21` [Example 101, N-Cyclopropyl-5-(7-fluoropyrazolo[4,3-b]indol-4(1H)-yl)-6-methylpicolinamide]: the IC50 against human MetAP2 enzyme [1] and on human MetAP2 enzyme [2] was 10 nM each time.
On to `COCCNC(=O)c1ccc(-n2c3ccc(F)cc3c3[nH]ncc32)c(C)n1` [Example 102, 5-(7-Fluoropyrazolo[4,3-b]indol-4(1H)-yl)-N-(2-methoxyethyl)-6-methylpicolinamide], for which the IC50 was 31.6 nM against human MetAP2 enzyme [1] and 39.8 nM against human MetAP2 enzyme [2].
The corresponding values for `Cc1nc(N2CC[C@H](C(=O)NCCO)C2)ncc1-n1c2ccc(F)cc2c2[nH]ncc21` [Example 103, (3S)-1-(5-(7-Fluoropyrazolo[4,3-b]indol-4(1H)-yl)-4-methylpyrimidin-2-yl)-N-(2-hydroxyethyl)pyrrolidine-3-carboxamide] are 6.31 nM and 10 nM.
The corresponding values for `Cc1cc(C(=O)NC2(CO)CC2)ncc1-n1c2ccc(F)cc2c2[nH]ncc21` [Example 104, 5-(7-Fluoropyrazolo[4,3-b]indol-4(1H)-yl)-N-(1-(hydroxymethyl)cyclopropyl)-4-methylpicolinamide] are 10 nM and 12.6 nM.
Take `COCCNC(=O)c1cc(C)c(-n2c3ccc(F)cc3c3[nH]ncc32)cn1` [Example 105, 5-(7-Fluoropyrazolo[4,3-b]indol-4(1H)-yl)-N-(2-methoxyethyl)-4-methylpicolinamide]: the IC50 against human MetAP2 enzyme [1] was 50.1 nM; against human MetAP2 enzyme [2] it was 63.1 nM.
On to `Cc1cc(C(=O)N2CCOCC2)ncc1-n1c2ccc(F)cc2c2[nH]ncc21` [Example 106, (5-(7-Fluoropyrazolo[4,3-b]indol-4(1H)-yl)-4-methylpyridin-2-yl)(morpholino)methanone], for which the IC50 against human MetAP2 enzyme [1] and against human MetAP2 enzyme [2] was 100 nM throughout.
With `Cc1cc(C(N)=O)ncc1-n1c2ccc(F)cc2c2[nH]ncc21` [Example 107, 5-(7-Fluoropyrazolo[4,3-b]indol-4(1H)-yl)-4-methylpicolinamide], the figures for the IC50 against human MetAP2 enzyme [1] and on human MetAP2 enzyme [2] were 20 nM and 12.6 nM, respectively.
As to `Cc1cc(C(=O)N(C)C)ncc1-n1c2ccc(F)cc2c2[nH]ncc21` [Example 108, 5-(7-Fluoropyrazolo[4,3-b]indol-4(1H)-yl)-N,N,4-trimethylpicolinamide], the IC50 was 20 nM at human MetAP2 enzyme [1] and 25.1 nM on human MetAP2 enzyme [2].
Consider `Cc1cc(C(=O)N2CC[C@@H](O)C2)ncc1-n1c2ccc(F)cc2c2[nH]ncc21` [Example 109, (5-(7-Fluoropyrazolo[4,3-b]indol-4(1H)-yl)-4-methylpyridin-2-yl)((R)-3-hydroxypyrrolidin-1-yl)methanone], for which the IC50 against human MetAP2 enzyme [1] and against human MetAP2 enzyme [2] was 25.1 nM each time.
As for `Cc1nc(N2CC[C@H](C(=O)N3CC(O)C3)C2)ncc1-n1c2ccc(F)cc2c2[nH]ncc21` [Example 111, ((3S)-1-(5-(7-Fluoropyrazolo[4,3-b]indol-4(1H)-yl)-4-methylpyrimidin-2-yl)pyrrolidin-3-yl)(3-hydroxyazetidin-1-yl)methanone], the IC50 was 7.94 nM on human MetAP2 enzyme [1] and 12.6 nM on human MetAP2 enzyme [2].
Consider `CCN1CCn2ncc(-n3c4ccc(F)cc4c4[nH]ncc43)c2C1` [Example 112, 4-(5-Ethyl-4,5,6,7-tetrahydropyrazolo[1,5-a]pyrazin-3-yl)-7-fluoro-1,4-dihydropyrazolo[4,3-b]indole], for which the results for the IC50 on human MetAP2 enzyme [1] and against human MetAP2 enzyme [2] were 12.6 nM and 20 nM, respectively.
The corresponding values for `CNC(=O)c1cc(C)c(-n2c3ccc(F)cc3c3[nH]ncc32)cn1` [Example 113, 5-(7-Fluoropyrazolo[4,3-b]indol-4(1H)-yl)-N,4-dimethylpicolinamide] are 12.6 nM and 10 nM.

Source of the values: patent publication US9475816B2, “Substituted-1,4-dihydropyrazolo[4,3-b]indoles” (TAKEDA PHARMACEUTICAL COMPANY LIMITED, priority 2012, dated 2016).
